Columns and labels:
HSV = conditions: continuous suppressive administration, early intervention; Corey et al. 2004; cited from earlier work
[1] = tested on: Splenic CD4 T cell responses (SIV-Gag DD13 epitope); test: Splenic CD4 T cell responses by ICS after SIV-Gag protein with or without GLA-SE (Example 8); format: in vivo, C57BL/6 mice; conditions: 5 μg SIV-Gag protein + 5 μg GLA-SE vs SE alone or PBS, i.m. d0/d21, day 5 post-boost
Procedure: C57BL/6 mice (4 per group) were immunized intramuscularly via a prime/boost immunization regimen (d0 prime/d21 boost) with 5 μg of recombinant SIV-Gag protein+5 μg of GLA-SE, SE alone, or PBS. Splenic CD4 T cell responses were measured on day 5 post-boost by ICS for IFN-γ, TNF-α, and IL-2 after ex vivo re-stimulation with SIV-Gag CD4 T cell epitope containing peptide DD13 (amino acids 299-311 of SIV-GAG; DRFYKSLRAEQTD; SEQ ID NO: 45)

Compound | reduction of HSV transmission (HSV) | Th1 CD4 T cell response after immunization with SIV-Gag recombinant protein [1]
CC(C)[C@H](N)C(=O)OCCOCn1cnc2c(=O)[nH]c(N)nc21 [Valacyclovir] | less than 50% | 
CCCCCCCCCCCCCC(=O)O[C@H](CCCCCCCCCCC)CC(=O)O[C@@H]1[C@@H](NC(=O)C[C@H](CCCCCCCCCCC)OC(=O)CCCCCCCCCCCCC)[C@H](OC[C@H]2O[C@H](O)[C@H](NC(=O)C[C@H](O)CCCCCCCCCCC)[C@@H](OC(=O)C[C@H](O)CCCCCCCCCCC)[C@@H]2O)O[C@H](CO)[C@H]1OP(=O)(O)O [GLA, glucopyranosyl lipid A] |  | required for a robust Th1 CD4 T cell response

Reference: patent US9044420B2, “Immunogenic compositions and methods of using the compositions for inducing humoral and cellular immune responses” (IMMUNE DESIGN CORP., priority 2011, dated 2015)
